Drawing on patent US10246453B2, “Benzenesulfonamide compounds and their use as therapeutic agents” (Xenon Pharmaceuticals Inc., priority 2016, dated 2019), this text covers IC50 for 24 compounds.

One series has as its target NaV1.1 (Homo sapiens (Human), UniProt P35498). As to the kind of experiment: Sodium Influx Assay (Flux), NaV1.1. The following applies: Trex HEK293 cells, ANG2 dye; arithmetic mean. It counts as cell-based.
For a further series, the target named is NaV1.6 (Homo sapiens (Human), UniProt Q9UQD0). The experiment in a line: Sodium Influx Assay (Flux), NaV1.6. The following applies: read-out: Flux NaV1.6 IC50; Trex HEK293 cells, ANG2 dye; arithmetic mean.
Another series has as its target NaV1.5 (Homo sapiens (Human), UniProt Q14524). As to the kind of experiment: Sodium Influx Assay (Flux), NaV1.5. The following applies: read-out: Flux NaV1.5 IC50; Trex HEK293 cells, ANG2 dye; arithmetic mean.

As usually defined, the IC50 is the concentration that inhibits the measured activity by half.

Counter-ions that a name gives are not always drawn.

Chain of NaV1.5 (Q14524 other isoform, or with tags, fused parts or gaps): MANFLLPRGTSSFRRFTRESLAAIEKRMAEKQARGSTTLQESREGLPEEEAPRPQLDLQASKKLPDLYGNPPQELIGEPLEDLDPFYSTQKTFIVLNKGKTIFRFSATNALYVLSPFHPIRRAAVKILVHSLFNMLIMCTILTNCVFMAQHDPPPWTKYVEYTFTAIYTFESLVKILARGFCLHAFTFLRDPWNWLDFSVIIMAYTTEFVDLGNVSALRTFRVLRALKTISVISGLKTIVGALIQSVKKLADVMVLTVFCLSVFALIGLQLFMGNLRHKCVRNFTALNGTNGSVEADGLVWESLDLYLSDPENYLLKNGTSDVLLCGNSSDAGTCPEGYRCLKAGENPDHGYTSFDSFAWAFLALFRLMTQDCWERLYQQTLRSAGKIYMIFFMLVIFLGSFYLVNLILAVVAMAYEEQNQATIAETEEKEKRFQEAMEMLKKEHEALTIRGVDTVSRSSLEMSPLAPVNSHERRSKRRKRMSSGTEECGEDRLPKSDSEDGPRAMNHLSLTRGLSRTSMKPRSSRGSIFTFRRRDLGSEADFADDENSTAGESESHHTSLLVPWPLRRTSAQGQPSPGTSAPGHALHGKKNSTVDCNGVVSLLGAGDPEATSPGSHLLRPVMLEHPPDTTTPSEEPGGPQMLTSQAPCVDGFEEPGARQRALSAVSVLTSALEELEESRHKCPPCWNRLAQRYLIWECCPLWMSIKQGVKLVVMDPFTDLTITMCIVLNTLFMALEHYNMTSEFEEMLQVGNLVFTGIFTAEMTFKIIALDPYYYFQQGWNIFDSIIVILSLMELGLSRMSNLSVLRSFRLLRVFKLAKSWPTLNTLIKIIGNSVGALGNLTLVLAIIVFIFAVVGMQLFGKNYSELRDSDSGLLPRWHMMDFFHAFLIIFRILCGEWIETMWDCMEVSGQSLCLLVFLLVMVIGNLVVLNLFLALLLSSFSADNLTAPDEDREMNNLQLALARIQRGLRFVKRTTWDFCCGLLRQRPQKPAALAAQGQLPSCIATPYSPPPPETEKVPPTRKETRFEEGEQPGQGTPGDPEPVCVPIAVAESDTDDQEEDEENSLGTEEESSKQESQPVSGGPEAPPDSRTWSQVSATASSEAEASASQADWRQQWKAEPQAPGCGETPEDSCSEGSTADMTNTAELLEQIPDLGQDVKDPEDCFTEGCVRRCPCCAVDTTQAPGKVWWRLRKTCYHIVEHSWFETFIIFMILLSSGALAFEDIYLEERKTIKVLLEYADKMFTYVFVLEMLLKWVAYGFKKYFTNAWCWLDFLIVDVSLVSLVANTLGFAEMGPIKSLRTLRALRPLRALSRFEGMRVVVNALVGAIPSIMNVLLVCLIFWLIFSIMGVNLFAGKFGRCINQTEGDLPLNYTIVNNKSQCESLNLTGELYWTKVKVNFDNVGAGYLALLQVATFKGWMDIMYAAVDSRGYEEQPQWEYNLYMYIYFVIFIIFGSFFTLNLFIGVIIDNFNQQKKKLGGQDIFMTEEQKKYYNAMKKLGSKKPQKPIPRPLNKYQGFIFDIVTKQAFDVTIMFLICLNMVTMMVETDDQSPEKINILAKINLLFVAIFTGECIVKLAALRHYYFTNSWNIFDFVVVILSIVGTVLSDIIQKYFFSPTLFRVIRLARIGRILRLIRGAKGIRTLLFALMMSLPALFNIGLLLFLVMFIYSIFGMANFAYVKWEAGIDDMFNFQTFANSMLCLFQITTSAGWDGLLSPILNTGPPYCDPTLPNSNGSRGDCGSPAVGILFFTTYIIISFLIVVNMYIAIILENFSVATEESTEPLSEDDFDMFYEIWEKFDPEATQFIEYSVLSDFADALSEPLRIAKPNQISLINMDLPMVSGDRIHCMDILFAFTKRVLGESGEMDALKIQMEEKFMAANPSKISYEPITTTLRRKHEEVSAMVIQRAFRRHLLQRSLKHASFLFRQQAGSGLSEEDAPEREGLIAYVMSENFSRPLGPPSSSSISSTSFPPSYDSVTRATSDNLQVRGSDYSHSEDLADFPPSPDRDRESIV

With `CN(c1cc(F)c(S(=O)(=O)Nc2cscn2)cc1Cl)[C@H]1CCN(Cc2cccs2)C1` [Example 215, (S)-5-chloro-2-fluoro-4-(methyl(1-(thiophen-2-ylmethyl)pyrrolidin-3-yl)amino)-N-(thiazol-4-yl)benzenesulfonamide], the results for the IC50 against NaV1.1, at NaV1.6 and on NaV1.5 were 27.5 µM, 5.2 µM and over 30 µM, respectively.
For the compound `Cc1ccnc(CN2CC[C@H](N(C)c3cc(F)c(S(=O)(=O)Nc4cscn4)cc3Cl)C2)c1` [Example 216, (S)-5-chloro-2-fluoro-4-(methyl(1-((4-methylpyridin-2-yl)methyl)pyrrolidin-3-yl)amino)-N-(thiazol-4-yl)benzenesulfonamide], the values for the IC50 at NaV1.1, on NaV1.6 and on NaV1.5 were over 30 µM, 3.71 µM and over 30 µM, respectively.
On to `CN(c1cc(F)c(S(=O)(=O)Nc2cscn2)cc1Cl)[C@H]1CCN(Cc2ccc(Br)cc2)C1` [Example 217, (S)-4-((1-(4-bromobenzyl)pyrrolidin-3-yl)(methyl)amino)-5-chloro-2-fluoro-N-(thiazol-4-yl)benzenesulfonamide], for which the IC50 at NaV1.1 is 4.57 µM; on NaV1.6, 5.64 µM; at NaV1.5, 6.7 µM.
As for `CN(c1cc(F)c(S(=O)(=O)Nc2cscn2)cc1Cl)[C@H]1CCN(Cc2ccccc2F)C1` [Example 218, (S)-5-chloro-2-fluoro-4-((1-(2-fluorobenzyl)pyrrolidin-3-yl)(methyl)amino)-N-(thiazol-4-yl)benzenesulfonamide], the IC50 against NaV1.1 worked out at 13.7 µM; at NaV1.6, 2 µM; on NaV1.5 it was 14.2 µM.
On to `Cc1c(F)cccc1CN1CC[C@H](N(C)c2cc(F)c(S(=O)(=O)Nc3cscn3)cc2Cl)C1` [Example 220, (S)-5-chloro-2-fluoro-4-((1-(3-fluoro-2-methylbenzyl)pyrrolidin-3-yl)(methyl)amino)-N-(thiazol-4-yl)benzenesulfonamide], for which the IC50 came to 5.84 µM against NaV1.1, 3.69 µM on NaV1.6 and 8.19 µM at NaV1.5.
In the same order, the values of `Cc1c(OC2CCN(Cc3ccccc3)CC2)cc(F)c(S(=O)(=O)Nc2nccs2)c1F` [Example 223, 4-((1-benzylpiperidin-4-yl)oxy)-2,6-difluoro-3-methyl-N-(thiazol-2-yl)benzenesulfonamide 2,2,2-trifluoroacetate] are 2.58 µM, 0.009 µM and 23.2 µM.
`Cc1c(N(C)[C@H]2CCN(Cc3cccc(C(F)(F)F)n3)C2)cc(F)c(S(=O)(=O)Nc2cscn2)c1F` [Example 224, (S)-2,6-difluoro-3-methyl-4-(methyl(1-((6-(trifluoromethyl)pyridin-2-yl)methyl)pyrrolidin-3-yl)amino)-N-(thiazol-4-yl)benzenesulfonamide 2,2,2-trifluoroacetate]: the IC50 against NaV1.1 was 8.89 µM; at NaV1.6, 0.024 µM; on NaV1.5, over 30 µM.
Regarding `C[C@H](c1ccccc1)N1CCC(Oc2ccc(S(=O)(=O)Nc3cscn3)c(F)c2Cl)CC1` [Example 227, (R)-3-chloro-2-fluoro-4-((1-(1-phenylethyl)piperidin-4-yl)oxy)-N-(thiazol-4-yl)benzenesulfonamide formate], the IC50 against NaV1.1 was over 30 µM; at NaV1.6, 0.855 µM; at NaV1.5 it was over 30 µM.
For the compound `Cc1cc(S(=O)(=O)Nc2ccon2)c(F)cc1N(C)[C@H]1CCN(Cc2ccccc2)C1` [Example 229, (S)-4-((1-benzylpyrrolidin-3-yl)(methyl)amino)-2-fluoro-N-(isoxazol-3-yl)-5-methylbenzenesulfonamide 2,2,2-trifluoroacetate], the results for the IC50 on NaV1.1, on NaV1.6 and on NaV1.5 were over 30 µM, 1.56 µM and over 30 µM, respectively.
On to `CN(c1cc(F)c(S(=O)(=O)Nc2cscn2)cc1Br)[C@H]1CCN(Cc2ccccc2)C1` [Example 230, (S)-4-((1-benzylpyrrolidin-3-yl)(methyl)amino)-5-bromo-2-fluoro-N-(thiazol-4-yl)benzenesulfonamide 2,2,2-trifluoroacetate], for which the IC50 is 13.1 µM on NaV1.1, 0.967 µM on NaV1.6 and 23 µM on NaV1.5.
In the same order, the values of `C[C@H]1C[C@H](N(C)c2cc(F)c(S(=O)(=O)Nc3cscn3)cc2Cl)CN1Cc1ccccc1` [Example 231, 4-(((3S,5S)-1-benzyl-5-methylpyrrolidin-3-yl)(methyl)amino)-5-chloro-2-fluoro-N-(thiazol-4-yl)benzenesulfonamide formate] are 25.5 µM, 5.51 µM and 15.1 µM.
In the same order, the values of `O=S(=O)(Nc1cscn1)c1ccc(OC2CCN(Cc3cccc(C(F)F)c3)CC2)c(Cl)c1` [Example 232, 3-chloro-4-((1-(3-(difluoromethyl)benzyl)piperidin-4-yl)oxy)-N-(thiazol-4-yl)benzenesulfonamide formate] are 4.6 µM, 0.858 µM and 3.76 µM.
In the same order, the values of `Cc1c(NC2(C)CN(Cc3ccccc3)C2)cc(F)c(S(=O)(=O)Nc2cscn2)c1F` [Example 233, 4-((1-benzyl-3-methylazetidin-3-yl)amino)-2,6-difluoro-3-methyl-N-(thiazol-4-yl)benzenesulfonamide 2,2,2-trifluoroacetate] are 6.02 µM, 0.375 µM and 27.3 µM.
On to `O=S(=O)(Nc1nccs1)c1ccc(OC2CCN(CCc3ccccc3)CC2)c(Cl)c1` [Example 234, 3-chloro-4-((1-phenethylpiperidin-4-yl)oxy)-N-(thiazol-2-yl)benzenesulfonamide], for which the IC50 worked out at 6.87 µM at NaV1.1, 1.42 µM at NaV1.6 and 20.7 µM on NaV1.5.
In the same order, the values of `Cc1c(N(C)[C@H]2CCN(Cc3cccc(F)c3)C2)cc(F)c(S(=O)(=O)Nc2cscn2)c1F` [Example 235, (S)-2,6-difluoro-4-((1-(3-fluorobenzyl)pyrrolidin-3-yl)(methyl)amino)-3-methyl-N-(thiazol-4-yl)benzenesulfonamide formate] are 10.2 µM, 0.047 µM and 15.4 µM.
For `Cc1c(N(C)[C@H]2CCN(Cc3ccccc3F)C2)cc(F)c(S(=O)(=O)Nc2cscn2)c1F` [Example 236, (S)-2,6-difluoro-4-((1-(2-fluorobenzyl)pyrrolidin-3-yl)(methyl)amino)-3-methyl-N-(thiazol-4-yl)benzenesulfonamide formate], in that order: 24.3 µM, 0.067 µM and over 30 µM.
`Cc1c(N(C)[C@H]2CCN(Cc3cccc(F)c3F)C2)cc(F)c(S(=O)(=O)Nc2cscn2)c1F` [Example 237, (S)-4-((1-(2,3-difluorobenzyl)pyrrolidin-3-yl)(methyl)amino)-2,6-difluoro-3-methyl-N-(thiazol-4-yl)benzenesulfonamide formate]: the IC50 turned out to be 8.52 µM against NaV1.1, 0.064 µM at NaV1.6 and 14.7 µM on NaV1.5.
`Cc1cc(S(=O)(=O)Nc2cscn2)c(F)cc1OC1CCN(Cc2ccccc2)CC1` [Example 239, 4-((1-benzylpiperidin-4-yl)oxy)-2-fluoro-5-methyl-N-(thiazol-4-yl)benzenesulfonamide]: the IC50 at NaV1.1 was 27 µM; at NaV1.6, 0.708 µM; on NaV1.5, 16.5 µM.
In the same order, the values of `Cc1c(N(C)[C@H]2CCN(Cc3cc(F)ccc3F)C2)cc(F)c(S(=O)(=O)Nc2cscn2)c1F` [Example 240, (S)-4-((1-(2,5-difluorobenzyl)pyrrolidin-3-yl)(methyl)amino)-2,6-difluoro-3-methyl-N-(thiazol-4-yl)benzenesulfonamide 2,2,2-trifluoroacetate] are 8.06 µM, 0.093 µM and 7.46 µM.
Take `CN(c1ccc(S(=O)(=O)Nc2nccs2)cc1Cl)C1(C)CCN(Cc2ccccc2)C1` (stereo not drawn) [Example 241, 4-((1-benzyl-3-methylpyrrolidin-3-yl)(methyl)amino)-3-chloro-N-(thiazol-2-yl)benzenesulfonamide]: the values for the IC50 against NaV1.1, at NaV1.6 and on NaV1.5 were 9.93 µM, 0.274 µM and 15.1 µM, respectively.
Take `CC[C@H](c1ccccc1)N1CC[C@H](N(C)c2cc(F)c(S(=O)(=O)Nc3cscn3)cc2Cl)C1` [Example 243, 5-chloro-2-fluoro-4-(methyl((S)-1-((R)-1-phenylpropyl)pyrrolidin-3-yl)amino)-N-(thiazol-4-yl)benzenesulfonamide]: the IC50 on NaV1.1 was 13.1 µM; on NaV1.6 it was 1.06 µM; at NaV1.5 it was 25.7 µM.
In the same order, the values of `CN(c1cc(F)c(S(=O)(=O)Nc2cscn2)cc1Cl)[C@H]1CCN(C2(c3ccccc3F)CCC2)C1` [Example 244, (S)-5-chloro-2-fluoro-4-((1-(1-(2-fluorophenyl)cyclobutyl)pyrrolidin-3-yl)(methyl)amino)-N-(thiazol-4-yl)benzenesulfonamide formate] are 6.94 µM, 1.23 µM and 5.08 µM.
In the same order, the values of `Cc1nc(CN2CC[C@H](N(C)c3cc(F)c(S(=O)(=O)Nc4cscn4)cc3C)C2)c(C)o1` [Example 245, (S)-4-((1-((2,5-dimethyloxazol-4-yl)methyl)pyrrolidin-3-yl)(methyl)amino)-2-fluoro-5-methyl-N-(thiazol-4-yl)benzenesulfonamide 2,2,2-trifluoroacetate] are over 30 µM, 2.12 µM and over 30 µM.
For `CN(c1ccc(S(=O)(=O)Nc2cscn2)c(F)c1Cl)[C@H]1CCN([C@H]2CCc3ccccc32)C1` [Example 247, 3-chloro-4-(((S)-1-((S)-2,3-dihydro-1H-inden-1-yl)pyrrolidin-3-yl)(methyl)amino)-2-fluoro-N-(thiazol-4-yl)benzenesulfonamide 2,2,2-trifluoroacetate], in that order: 6.87 µM, 0.469 µM and 14 µM.
